Experimental findings from patent publication US12357695B2, “Peptides and nanoparticles for intracellular delivery of molecules” (AADIGEN, LLC, priority 2019, dated 2025) are described below.

“Also recorded” adds a separate entry of the source. Square brackets hold non-standard residues; d marks the D form. Primed or numbered codes have the meaning given here. Ends that are not written are not given here. Stearyl = stearyl group covalently linked to the N-terminus; PEG4′ = four-unit PEG spacer; PEG2′ = two-unit PEG spacer; PEG7′ = (PEG)7 moiety; Ahx = NCCCCCC(=O)O; Ava = NCCCCC(=O)O; βAla = NCCC(=O)O

The test system of one experiment is 293T cells. As to the kind of experiment: Cellular delivery of Luciferase mRNA, luciferase expression at 72 hrs. Format: cell-based. The conditions noted are these: 0.25 μg Luc mRNA; for reduction of efficiency / luciferase expression by modification or linker vs unmodified ADGN peptide: absence of serum or heparan sulfate; for luciferase expression: absence of serum or heparan sulfate treatment; for reduction of efficiency / luciferase expression after serum treatment: complexes incubated 3 hrs in 25% serum prior transfection. Here is the method: FIGS. 1A-1C show luciferase expression in 293T cells treated with ADGN-peptide/mRNA complexes. 293T cells cultured in 48 well plates were transfected with ADGN-peptide nanoparticles. ADGN-100, ADGN-106, ADGN-100RI, ADGN-106RI, ADGN-100 Stearyl, ADGN-Hydro1, ADGN-Hydro2, ADGN-Hydro3, ADGN-Hydro4, ADGN-Hydro5, ADGN-Hydro6 and ADGN-peptide/ADGN-100PEG 10% nanoparticles containing 0.25 μg mRNA were formed in sterile water, diluted in sterile water containing 5% Sucrose and filtered with 0.45 μm PES filters. ADGN/mRNA complexes were incubated for 3 hrs in the presence of either 25% serum or heparan sulfate prior transfection. Luciferase expression was monitored 72 hours post transfection and results were reported as RLU (luminescence):mg of protein.
Complex formation with mRNA. The following protocols were used for the transfection of 2-5 106 Cells or Cells at confluency of about 70-80% cultured in 24 well plates. ADGN peptide/mRNA particles were prepared at a 20:1 molar ratio of ADGN-Peptide/mRNA. using (0.25 μg) mRNA. Luc mRNA (0.25 μg) was diluted in 20 μl of sterile water (GIBCO) at room temperature. 5 μl Final Peptide Solution was added to obtain a total volume of 20 μl. The volume was adjusted to 50 μl with sterile water and was mixed gently with vortex 1 min low speed and incubated 30 min at room temperature. Then the volume was made up to 100 μl by adding sterile water containing 5% sucrose, and the solution was mixed gently with vortex 1 min low speed and incubate 5 min at 37° C. and then was proceeded to cell transfection.
Transfection protocol. Protocol is reported for 24 well plate format. Cells were cultured in Dulbecco's Modified Eagle's Medium (DMEM), supplemented with 2 mM glutamine, 1% antibiotics (streptomycin 10,000 μg/mL, penicillin, 10,000 IU/mL) and 10% (w/v) foetal calf serum (FCS), at 37° C. in a humidified atmosphere containing 5% CO2. 24 well plates seeded with 150,000 cells the day prior to transfection were grown to 50-60% confluence and set up to be at about 70% confluences at the time of transfection. Before transfection, cells were washed twice with DMEM. Cells were then overlaid with 0.1 ml of ADGN-peptide/cargo complex solution containing 0.25 μg mRNA, 0.15 μg plasmid DNA or 10-25 nM siRNA, mixed gently, and incubated for 10 min at 37° C. 0.2 mL of fresh DMEM, were added and cells were incubated for 20 min at 37° C. 1 mL of complete DMEM containing 15% FCS were then added in order to reach a final FCS concentration of 10%, without removing the overlay of ADGN-peptide/cargo complexes. Cells were returned to the incubator (37° C., 5% CO2) and 72 hrs post transfection.
ADGN-peptides were evaluated for cellular delivery of Luciferase mRNA in 293T cells. A single dose of mRNA of 0.25 μg was evaluated. Luc mRNA (0.25 μg) in sterile water (GIBCO) were mixed with ADGN-100, ADGN-100RI, ADGN-106, ADGN-106RI, ADGN-100 Stearyl, ADGN-Hydro1, ADGN-Hydro2, ADGN-Hydro5 and ADGN-Hydro6. ADGN-peptide/mRNA complexes were filtered with 0.45 μm PES filter. In order to evaluate the stability of the ADGN/mRNA complexes in high serum and cell culture conditions, the complexes were incubated for 3 hrs in the presence of either 25% serum or heparan sulfate prior transfection, then 293T cells were transfected and Luciferase expression was monitored at 72 hrs.
ADGN-106 peptides containing YIGSR targeting sequence were evaluated for cellular delivery of Luciferase mRNA in 293T cells. A single dose of mRNA of 0.25 μg was evaluated. Luc mRNA (0.25 μg) in sterile water (GIBCO) were mixed with ADGN-106 and ADGN-106Hydro variant. ADGN-peptide/mRNA complexes were filtered with 0.45 μm PES filter. The ADGN-106/mRNA complexes were incubated for 3 hrs in the presence of 25% serum prior transfection, then 293T cells were transfected and Luciferase expression was monitored at 72 hrs.

The test system of another experiment is mice or rat models. As to the kind of experiment: Summary of cargo delivery to targeted organ (Table 1). Type of experiment: in vivo. The conditions noted are these: cargoes and route (IV, IM, SQ, NB) per peptide as listed in Table 1. From the text:
Table 1 lists a summary of cell-penetrating peptides that have been proven successful in delivering various cargo molecules to on or more targeted organ (e.g., by intravenous (IV), intramuscular (IM), or subcutaneous (SQ) administration, or intratraccheal instillation or nebulization (NB)) in mice or rat models.

Take “Ac-YIGSR-(PEG)7-βALWRALWRLWRSLWRLLWKA-NH2 (Ac-YIGSR[PEG7′][βAla]LWRALWRLWRSLWRLLWKA-NH2) [ADGN-106-HYPEG7]”: the “reduction of efficiency / luciferase expression by modification or linker vs unmodified ADGN peptide” value in the experiment with 293T cells amounted to 72%.

On to “Stearyl-βA-ALWRALWRLWRSLWRLLWKA-NH2 (Stearyl-[βAla]ALWRALWRLWRSLWRLLWKA-NH2) [ADGN-106 Stearyl]”, for which the “Targeted Organ” value in the experiment with mice or rat models was “Liver/Spleen”.

With “KSYDTY-ava-ALRWLRWASRWFSRWAWR (KSYDTY[Ava]ALRWLRWASRWFSRWAWR) [VEPEP-9A]”, the “Targeted Organ” value with mice or rat models is given as “Brain/Lymphnode”.

Turning to “Ac-YIGSR-(PEG)2-βALWRALWRLWRSLWRLLWKA-NH2 (Ac-YIGSR[PEG2′][βAla]LWRALWRLWRSLWRLLWKA-NH2) [ADGN-106-HYPEG2]”, in the experiment on 293T cells, the luciferase expression result was “high level of luciferase expression” and the “reduction of efficiency / luciferase expression after serum treatment” value is listed as 21%. Also, the “Targeted Organ” value with mice or rat models is on record as “Tumor/Lung”.

As for “Ac-YIGSR-(PEG)4-βALWRALWRLWRSLWRLLWKA-NH2 (Ac-YIGSR[PEG4′][βAla]LWRALWRLWRSLWRLLWKA-NH2) [ADGN-106-HYPEG4]”, in the experiment on 293T cells, the “reduction of efficiency / luciferase expression by modification or linker vs unmodified ADGN peptide” value came to 35%. The “Targeted Organ” value in the experiment with mice or rat models is on record as “Tumor/Lung”.

On to “Ac-YIGSR-(G)2-ALWRALWRLWRSLWRLLWKA-NH2 [ADGN-106-Hydro-7]”, for which the “reduction of efficiency / luciferase expression by modification or linker vs unmodified ADGN peptide” value in the experiment on 293T cells turned out to be 28%.

Take “beta-ALRWWLRWASRWFSRWAWWR (N-terminal beta-alanine; VARIANT 1 beta-A) [VEPEP-9]”: in the experiment on mice or rat models, the “Targeted Organ” value is on record as “Brain/Liver/; also recorded: Lung/Kidney/”.

On to “Ac-(PEG)2-βALWRALWRLWRSLWRLLWKA-NH2 ({Ac-PEG2′}-[βAla]LWRALWRLWRSLWRLLWKA-NH2) [ADGN-106-PEG2]”, for which the “Targeted Organ” value with mice or rat models was “Lung/Kidney/; also recorded: Spleen”.

As to “Ac-YIGSR-Ahx-ALWRALWRLWRSLWRLLWKA-NH2 (Ac-YIGSR[Ahx]ALWRALWRLWRSLWRLLWKA-NH2; SMILES CC[C@H](C)[C@H](NC(=O)[C@H](Cc1ccc(O)cc1)NC(C)=O)C(=O)NCC(=O)N[C@@H](CO)C(=O)N[C@@H](CCCNC(=N)N)C(=O)NCCCCCC(=O)N[C@@H](C)C(=O)N[C@@H](CC(C)C)C(=O)N[C@@H](Cc1c[nH]c2ccccc12)C(=O)N[C@@H](CCCNC(=N)N)C(=O)N[C@@H](C)C(=O)N[C@@H](CC(C)C)C(=O)N[C@@H](Cc1c[nH]c2ccccc12)C(=O)N[C@@H](CCCNC(=N)N)C(=O)N[C@@H](CC(C)C)C(=O)N[C@@H](Cc1c[nH]c2ccccc12)C(=O)N[C@@H](CCCNC(=N)N)C(=O)N[C@@H](CO)C(=O)N[C@@H](CC(C)C)C(=O)N[C@@H](Cc1c[nH]c2ccccc12)C(=O)N[C@@H](CCCNC(=N)N)C(=O)N[C@@H](CC(C)C)C(=O)N[C@@H](CC(C)C)C(=O)N[C@@H](Cc1c[nH]c2ccccc12)C(=O)N[C@@H](CCCCN)C(=O)N[C@@H](C)C(N)=O) [ADGN-106 hydro-7]”, the “Targeted Organ” value in the experiment on mice or rat models is “Lung/Tumor”.

As to “Ac-YIGSR-Aun(CH2)6-ALWRALWRLWRSLWRLLWKA-NH2 [ADGN-106-Hydro-5]”, in the experiment with 293T cells, the luciferase expression result is “high level of luciferase expression” and the “reduction of efficiency / luciferase expression after serum treatment” value is reported as 15%. In addition, the “Targeted Organ” value in the experiment on mice or rat models is “Tumor/Lung/; also recorded: Pancreas/Liver”.

Turning to “Ac-YIGSR-(G)4-ALWRALWRLWRSLWRLLWKA-NH2 (Ac-YIGSRGGGGALWRALWRLWRSLWRLLWKA-NH2) [ADGN-106-Hydro-1]”, in the experiment on 293T cells, the luciferase expression result was “high level of luciferase expression” and the “reduction of efficiency / luciferase expression after serum treatment” value was determined as 40%.

As to “Ac-GYVS-Ava(CH2)2-ALWRALWRLWRSLWRLLWKA-NH2 [ADGN-106 hydro-4]”, the “Targeted Organ” value in the experiment on mice or rat models is recorded as “Brain/Kidney”.

As to Ac-CKRAVRWWLRWASRWFSRWAWWR [VEPEP-9B], the “Targeted Organ” value with mice or rat models is “Heart”.

For “LSSRLDA-Ava-KWWERWWREWPRKRR (LSSRLDAKWWERWWREWPRKRR; Ava linker; VARIANT 7, 8 Linked by a 5-amino pentanoic acid) [VEPEP-3D]”, in the experiment on mice or rat models, the “Targeted Organ” value is recorded as “Heart/Muscle”.

“Ac-SYTSSTM-ava-KWWERWWREWPRKRR (SYTSSTMKWWERWWREWPRKRR; N-acetyl, Ava linker; VARIANT 1 N-terminal acetylation; VARIANT 7, 8 Linked by a 5-amino pentanoic acid) [VEPEP-3E]”: in the experiment with mice or rat models, the “Targeted Organ” value is on record as “Brain”.

Turning to “Ac-YIGSR-(PEG)2-βA-KWRSALWRWRLWRVRSWSR-NH2 (Ac-YIGSR[PEG2′][βAla]KWRSALWRWRLWRVRSWSR-NH2) [ADGN-100-HYPEG2]”, the “Targeted Organ” value in the experiment on mice or rat models is on record as “Lung”.

“Ac-(PEG)2-βA-KWRSALWRWRLWRVRSWSR-NH2 ({Ac-PEG2′}-[βAla]KWRSALWRWRLWRVRSWSR-NH2) [ADGN-100-PEG2]”: in the experiment on mice or rat models, the “Targeted Organ” value is reported as “Lung:Liver/; also recorded: Spleen”.

In the case of “KSYDTYAAETRRWASRWFSRWAWWR (not fully specified (N-terminus, C-terminus)) [VEPEP-9D]”, the “Targeted Organ” value in the experiment with mice or rat models is on record as “Brain/Lymphnode”.

Take “Ac-YIGSR-Balwralwrlwrslwrllwka-NH2 (Ac-YIGSR[βAla]LWRALWRLWRSLWRLLWKA-NH2) [ADGN-106-Hydro]”: in the experiment with 293T cells, the luciferase expression entry is “high level of luciferase expression” and the “reduction of efficiency / luciferase expression after serum treatment” value amounted to 80%.

With “ASSLNIA-Ava-KWWERWWREWPRKRR (ASSLNIAKWWERWWREWPRKRR; Ava linker; VARIANT 7, 8 Linked by a 5-amino pentanoic acid) [VEPEP-3C]”, the “Targeted Organ” value in the experiment with mice or rat models is “Muscle”.

For “Ac-YIGSR-(PEG)4-βA-KWRSALWRWRLWRVRSWSR-NH2 (Ac-YIGSR[PEG4′][βAla]KWRSALWRWRLWRVRSWSR-NH2) [ADGN-100-HYPEG4]”, the “Targeted Organ” value with mice or rat models is “Lung”.

Turning to “Ac-YIGSR-A-KWRSALWRWRLWRVRSWSR-NH2 (Ac-YIGSR[βAla]KWRSALWRWRLWRVRSWSR-NH2; SMILES CC[C@H](C)[C@H](NC(=O)[C@H](Cc1ccc(O)cc1)NC(C)=O)C(=O)NCC(=O)N[C@@H](CO)C(=O)N[C@@H](CCCNC(=N)N)C(=O)NCCC(=O)N[C@@H](CCCCN)C(=O)N[C@@H](Cc1c[nH]c2ccccc12)C(=O)N[C@@H](CCCNC(=N)N)C(=O)N[C@@H](CO)C(=O)N[C@@H](C)C(=O)N[C@@H](CC(C)C)C(=O)N[C@@H](Cc1c[nH]c2ccccc12)C(=O)N[C@@H](CCCNC(=N)N)C(=O)N[C@@H](Cc1c[nH]c2ccccc12)C(=O)N[C@@H](CCCNC(=N)N)C(=O)N[C@@H](CC(C)C)C(=O)N[C@@H](Cc1c[nH]c2ccccc12)C(=O)N[C@@H](CCCNC(=N)N)C(=O)N[C@H](C(=O)N[C@@H](CCCNC(=N)N)C(=O)N[C@@H](CO)C(=O)N[C@@H](Cc1c[nH]c2ccccc12)C(=O)N[C@@H](CO)C(=O)N[C@@H](CCCNC(=N)N)C(N)=O)C(C)C) [ADGN-100-Hydro]”, the “Targeted Organ” value in the experiment on mice or rat models was “Lung/Kidney”.

As for “beta-RWWLRWASRWFSRWAWR (not fully specified (residue 1, N-terminus); printed as beta-RWWLRWASRWFSRWAWR) [VEPEP-9C]”, the “Targeted Organ” value in the experiment on mice or rat models is listed as “Liver/Lung/; also recorded: Kidney/Brain”.

In the case of “beta-AKWFERWFREWPRKRR (N-terminal beta-alanine; VARIANT 1 beta-A) [VEPEP-3a]”, in the experiment on mice or rat models, the “Targeted Organ” value is “Kidney/Pancreas”.
